Values quoted from earlier work as cited in US6838451B1, “Methods and compositions for the prevention and treatment of inflammation, osteoarthritis, and other degenerative joint diseases” (Pharmanutrients, priority 2000, dated 2005).

Experiments:
[1] = dietary supplement

Molecule: conjugated linoleic acid
- toxicity [1]: nontoxic

Molecule: N[C@H]1C(O)O[C@H](CO)[C@@H](O)[C@@H]1O (some centres unmarked) [glucosamine]
- excreted as exhaled carbon dioxide (of the absorbed glucosamine): 65%
- excreted in the urine (of the absorbed glucosamine): 25%
- remaining in the tissues (of the absorbed glucosamine): 10%
- absorbed from the small intestine (sulfate form): over 90%
